Measurements taken from patent US11274090B2, “P300/CBP HAT inhibitors” (Constellation Pharmaceuticals, Inc., priority 2018, dated 2022).

What follows are compounds tested against p300 HAT domain (residues 1287-1666) (Homo sapiens (Human), UniProt Q09472) (assay: p300 HAT SPA assay (scintillation proximity assay, acetylation of biotinylated H3(1-21) peptide)). Conditions: average of at least 2 replicate titrations.
Format: biochemical
Method: In a typical experiment the p300 HAT inhibitory activity of the compounds described herein was determined in accordance with the following experimental method.
The expressed protein was purified by Ni2+ affinity, followed by anion exchange chromatography. Appropriate fractions were pooled and buffer exchanged into 20 mM Hepes pH 7.5, 150 mM NaCl, and 1 mM TCEP.
35 μL of the reaction volume was transferred to a 384-well streptavidin FlashPlate (PerkinElmer) using a Bravo liquid handler (Velocity 11) and incubated for 1.5 hr at RT. […] Data were analyzed in Genedata to determine inhibitor IC50 values.

p300 HAT domain (residues 1287-1666), sequence (Q09472 1287-1666): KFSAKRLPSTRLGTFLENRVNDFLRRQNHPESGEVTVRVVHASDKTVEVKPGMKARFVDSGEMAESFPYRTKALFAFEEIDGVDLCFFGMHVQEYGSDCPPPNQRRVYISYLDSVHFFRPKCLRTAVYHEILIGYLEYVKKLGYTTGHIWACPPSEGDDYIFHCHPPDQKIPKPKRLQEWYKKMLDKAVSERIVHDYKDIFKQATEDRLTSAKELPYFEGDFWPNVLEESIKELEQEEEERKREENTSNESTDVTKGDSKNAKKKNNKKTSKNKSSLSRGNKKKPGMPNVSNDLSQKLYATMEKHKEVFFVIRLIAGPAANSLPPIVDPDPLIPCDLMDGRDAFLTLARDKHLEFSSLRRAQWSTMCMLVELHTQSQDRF

Compound	IC50 [nM]
CC(CNC(C(=O)Nc1ccc(-c2cnn(C)n2)cn1)c1ccccc1)c1ccc(C(F)(F)F)cc1 (single isomer, unassigned) [99 Isomer 1]	869
CC(CNC(C(=O)Nc1ccc(-c2cnn(C)c2)cn1)c1ccccc1)c1ccc(C#N)cc1F (single isomer, unassigned) [90 Isomer 3]	1600
CC(CNC(C(=O)Nc1ccc(-c2cn[nH]c2)cn1)c1ccccc1)c1ccc(C#N)cc1 (single isomer, unassigned) [104 Isomer 4]	1020
Cc1ncn(-c2ccc(NC(=O)C(NCCc3ccc(C#N)cc3)c3ccccc3)nc2)n1 (single isomer, unassigned) [73 Isomer 2]	197
Cn1cc(-c2ccc(NC(=O)C(NCCc3ccc(F)cc3)c3ccccc3)nc2)cn1 (single isomer, unassigned) [58 Isomer 2]	> 5000
CCN(CC)C(=O)C1CCN(c2ccc(NC(=O)C(NCCc3ccc(C#N)cc3)c3ccccc3)nc2)CC1 (single isomer, unassigned) [64 Isomer 2]	568
Cc1ncc(-c2ccc(NC(=O)[C@@H](NC[C@H](C)c3ccc(C#N)cc3)c3ccccc3)nc2)cn1 (single isomer, unassigned; isomer 2) [6 Isomer 2]	> 2000
N#Cc1ccc(CCNC(C(=O)Nc2ccc(N3CCC4(COC4)C3)cn2)c2ccccc2)cc1 (single isomer, unassigned) [96 Isomer 1]	67.4
Cn1cc(-c2ccc(NC(=O)C(NCCc3ccc(C#N)cn3)c3ccccc3)nc2)cn1 (single isomer, unassigned) [142 Isomer 1]	> 2000
N#Cc1ccc(CCNC(C(=O)Nc2ccc(N3CC4(COC4)C3)cn2)c2ccccc2)cc1 (single isomer, unassigned) [80 Isomer 1]	201
CCN1CCN(c2ccc(NC(=O)C(NC[C@@H](C)c3ccc(C#N)cc3)c3ccccc3)nc2)CC1=O (single isomer, unassigned) [102 Isomer 2]	1550
Cc1cn(-c2ccc(NC(=O)C(NCCc3ccc(C#N)cc3)c3ccccc3)nc2)nn1 (single isomer, unassigned) [78 Isomer 1]	296
Cn1cc(-c2ccnc(NC(=O)C(NCCc3ccc(C#N)cc3)c3ccccc3)c2)cn1 (single isomer, unassigned) [122 Isomer 1]	> 60000
CC(Cc1ccc(Cl)cc1)NC(C(=O)Nc1ccc(-c2cnn(C)c2)cc1)c1ccccc1 (single isomer, unassigned) [3 Isomer 2]	> 5000
Cc1ncc(-c2ccc(NC(=O)[C@@H](NC[C@@H](C)c3ccc(C#N)cc3)c3ccccc3)nc2)cn1 (single isomer, unassigned; isomer 1) [6 Isomer 1]	1680
O=C(Nc1ccc(-c2cccnn2)cc1)C(NCCc1ccc(Cl)cc1)c1ccccc1 (single isomer, unassigned) [10 Isomer 1]	> 5000
Cc1ncc(-c2ccc(NC(=O)[C@H](NC[C@H](C)c3ccc(C#N)cc3)c3ccccc3)nc2)cn1 (single isomer, unassigned; isomer 4) [6 Isomer 4]	20.9
CC(=O)N1CCN(c2ccc(NC(=O)C(NC[C@@H](C)c3ccc(C#N)cc3)c3cccc(F)c3)nc2)CC1 (single isomer, unassigned) [135 Isomer 1]	855
C[C@H](CNC(C(=O)Nc1ccc(-c2cnn(CC(=O)N3CCCC3)c2)cn1)c1ccccc1)c1ccc(C#N)cc1 (single isomer, unassigned) [132 Isomer 1]	932
Cc1ccc(-c2ccc(NC(=O)C(NCC(C)c3ccc(C#N)cc3)c3ccccc3)nc2)nn1 (single isomer, unassigned) [15 Isomer 2]	> 2000
C[C@H](CNC(C(=O)Nc1ccc(-c2ccc(=O)n(C)n2)cn1)c1ccccc1)c1ccc(C#N)cc1 (single isomer, unassigned) [134 Isomer 1]	> 2000
CC(CNC(C(=O)Nc1ccc(-c2cnn(C)c2)cc1)c1ccccc1)c1ccc(C#N)cc1 (single isomer, unassigned) [82 Isomer 3]	604
Cn1cc(-c2ccc(NC(=O)C(NCCc3ccc(Cl)cc3C#N)c3ccccc3)nc2)cn1 (single isomer, unassigned) [94 Isomer 2]	> 2000
Cn1cc(-c2ccc(NC(=O)C(NCCc3ccc(C#N)cc3)c3cccc(C#N)c3)nc2)cn1 (single isomer, unassigned) [116 Isomer 2]	> 2000
C[C@H](CNC(C(=O)Nc1ccc(N2CCN(C)C(=O)C2)cn1)c1cccc(F)c1)c1ccc(C#N)cc1 (single isomer, unassigned) [137 Isomer 1]	783
CN1CCN(c2ccc(NC(=O)C(NCCc3ccc(Cl)cc3)c3ccccc3)nc2)CC1 (single isomer, unassigned) [69 Isomer 1]	35.8
COC1CN(c2ccc(NC(=O)C(NCC(C)c3ccc(C#N)cc3)c3ccccc3)nc2)C1 (single isomer, unassigned) [32 Isomer 4]	> 2000

Compound	IC50 [nM]
CC(CNC(C(=O)Nc1ccc(-c2cnn(C)c2)cn1)c1ccccc1)c1ccc(C#N)c(F)c1 (single isomer, unassigned) [91 Isomer 3]	1020
CN1CCN(c2ccc(NC(=O)C(NCCc3ccc(Cl)cc3)c3ccccc3)nc2)CC1 (single isomer, unassigned) [69 Isomer 2]	> 2000
Cn1cc(-c2ccc(NC(=O)C(NCCc3ccc(C#N)cc3)c3ccccc3Cl)nc2)cn1 (single isomer, unassigned) [88 Isomer 2]	> 2000
CC1CN(c2ccc(NC(=O)C(NC[C@@H](C)c3ccc(C#N)cc3)c3ccccc3)nc2)CC(=O)N1C (single isomer, unassigned) [124 Isomer 2]	768
CC(CNC(C(=O)Nc1ccc(-c2cnn(C)c2)cn1)c1ccccc1)c1ccc(C#N)c(F)c1 (single isomer, unassigned) [91 Isomer 1]	473
Cc1cnc(-c2ccc(NC(=O)C(NCCc3ccc(C#N)cc3)c3ccccc3)cc2)[nH]1 (single isomer, unassigned) [11 Isomer 2]	> 5000
Cn1cc(-c2ccc(NC(=O)C(NCCc3ccc(Cl)cc3C#N)c3ccccc3)nc2)cn1 (single isomer, unassigned) [94 Isomer 1]	85.1
CC(CNC(C(=O)Nc1ccc(-c2cnn(C)c2)cn1)c1ccccc1)c1ccc(C#N)cc1F (single isomer, unassigned) [90 Isomer 1]	210
N#Cc1ccc(CCNC(C(=O)Nc2ccc(N3CCC(F)(F)C3)cn2)c2ccccc2)cc1 (single isomer, unassigned) [77 Isomer 2]	1980
CC(CNC(C(=O)Nc1ccc(-c2cnn(C(C)(C)CO)c2)cn1)c1ccccc1)c1ccc(C#N)cc1 (single isomer, unassigned) [8 Isomer 1]	309
CC(CNC(C(=O)Nc1ccc(-c2cnn(CC(F)(F)F)c2)cn1)c1ccccc1)c1ccc(C#N)cc1 (single isomer, unassigned) [83 Isomer 2]	> 2000
CC(CNC(C(=O)Nc1ccc(-n2cnc(C(C)(C)C)c2)cn1)c1ccccc1)c1ccc(C#N)cc1 (single isomer, unassigned) [59 Isomer 4]	39.3
C[C@H](CNC(C(=O)Nc1ccc(C2CC(=O)N(C)C2)cn1)c1ccccc1)c1ccc(C#N)cc1 (single isomer, unassigned) [109 Isomer 2]	> 2000
Cc1nnc2n1CCN(c1ccc(NC(=O)C(NCCc3ccc(C#N)cc3)c3ccccc3)nc1)C2 (single isomer, unassigned) [60 Isomer 2]	> 2000
CC(CNC(C(=O)Nc1ccc(-c2cnn(C)n2)cn1)c1ccccc1)c1ccc(C(F)(F)F)cc1 (single isomer, unassigned) [99 Isomer 2]	1020
N#Cc1ccc(CCNC(C(=O)Nc2ccc(N3CCOCC3)cn2)c2ccccc2)cc1 (single isomer, unassigned) [81 Isomer 2]	> 2000
CC1C(=O)N(C)CCN1c1ccc(NC(=O)C(NC[C@@H](C)c2ccc(C#N)cc2)c2ccccc2)nc1 (single isomer, unassigned) [126 Isomer 2]	> 2000
CC(CNC(C(=O)Nc1ccc(N2CCN(C)S2(=O)=O)cn1)c1ccccc1)c1ccc(C#N)cc1 (single isomer, unassigned) [108 Isomer 3]	> 2000
(S,R)-, (R,S)-, (S,S)-, (R,R)-(2-((2-(4-cyanophenyl)propyl)amino)-N-(5-(1-(difluoromethyl)-1H-pyrazol-4-yl)pyridin-2-yl)-2-phenylacetamide [20 Isomer 3]	1630
CC1C(=O)N(C)CCN1c1ccc(NC(=O)C(NC[C@@H](C)c2ccc(C#N)cc2)c2ccccc2)nc1 (single isomer, unassigned) [126 Isomer 4]	22
Cn1cc(-c2ccc(NC(=O)C(NCCc3ccc(Cl)cc3)c3cnn(C)c3)nc2)cn1 (single isomer, unassigned) [148 Isomer 2]	140
Cn1cc(-c2ccc(NC(=O)C(NCCc3ccc(S(N)(=O)=O)cc3)c3ccccc3)cc2)cn1 (single isomer, unassigned) [4 Isomer 2]	1370
CC1(C)CCN(c2ccc(NC(=O)C(NCCc3ccc(C#N)cc3)c3ccccc3)nc2)CC1 (single isomer, unassigned) [65 Isomer 1]	477
CC(CNC(C(=O)Nc1ccc(-c2cnn(C)c2)cn1)c1ccccc1)c1ccc(C#N)c(F)c1 (single isomer, unassigned) [91 Isomer 4]	401
CC(CNC(C(=O)Nc1ccc(-n2cnc(C(C)(C)C)c2)cn1)c1ccccc1)c1ccc(C#N)cc1 (single isomer, unassigned) [59 Isomer 2]	> 2000
CC(Cc1ccc(Cl)cc1)NC(C(=O)Nc1ccc(-c2cnn(C)c2)cc1)c1ccccc1 (single isomer, unassigned) [3 Isomer 3]	> 5000
CC(CNC(C(=O)Nc1ccc(-c2cnn(C)n2)cn1)c1ccccc1)c1ccc(C(F)(F)F)cc1 (single isomer, unassigned) [99 Isomer 3]	> 2000
